Assay results as given in patent US10577634B2, “Bioconversion process for producing nylon-7, nylon-7,7 and polyesters” (INVISTA North America S.A.R.L., priority 2011, dated 2020).

Assays:
[1] = target: T1, ACOT8 peroxisomal acyl-CoA thioesterase 8 (Mus musculus, UniProt P58137); conditions: inhibition of ACOT8; cited from earlier work
T1 construct: His-Tag; host or cells: E. coli
T1 sequence (P58137 1-320): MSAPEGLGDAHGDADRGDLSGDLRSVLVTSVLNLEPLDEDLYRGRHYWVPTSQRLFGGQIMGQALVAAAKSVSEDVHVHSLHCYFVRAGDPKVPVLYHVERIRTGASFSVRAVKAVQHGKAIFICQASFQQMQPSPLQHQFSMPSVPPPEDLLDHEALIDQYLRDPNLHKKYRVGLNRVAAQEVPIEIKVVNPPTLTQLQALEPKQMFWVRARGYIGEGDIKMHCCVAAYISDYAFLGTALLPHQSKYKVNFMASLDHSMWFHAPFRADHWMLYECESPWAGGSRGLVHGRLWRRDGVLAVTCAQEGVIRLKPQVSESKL

[2] = target: T2, ACOT4 peroxisomal acyl-CoA thioesterase 4 (Mus musculus, UniProt Q8BWN8); conditions: CoASH at concentrations up to 500 μM; cited from earlier work
T2 construct: His-tag; host or cells: E. coli
T2 sequence (Q8BWN8 1-421): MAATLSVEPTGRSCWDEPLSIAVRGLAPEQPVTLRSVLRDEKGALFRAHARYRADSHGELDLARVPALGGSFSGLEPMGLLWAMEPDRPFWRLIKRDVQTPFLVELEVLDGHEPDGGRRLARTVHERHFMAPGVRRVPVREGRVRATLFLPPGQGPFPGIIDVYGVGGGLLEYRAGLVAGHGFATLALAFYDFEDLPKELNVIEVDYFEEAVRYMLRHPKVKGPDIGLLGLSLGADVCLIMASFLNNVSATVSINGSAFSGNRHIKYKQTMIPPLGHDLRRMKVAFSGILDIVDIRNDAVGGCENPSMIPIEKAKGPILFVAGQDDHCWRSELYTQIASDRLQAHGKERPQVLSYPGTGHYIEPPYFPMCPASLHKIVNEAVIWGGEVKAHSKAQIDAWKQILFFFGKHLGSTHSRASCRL

ACOT3 (formerly PTE-1a) = target: T3, ACOT3 (formerly PTE-1a) (Mus musculus, UniProt Q9QYR7); conditions: free CoASH; cited from earlier work
T3 construct: His-tag; host or cells: E. coli
T3 sequence (Q9QYR7 1-432): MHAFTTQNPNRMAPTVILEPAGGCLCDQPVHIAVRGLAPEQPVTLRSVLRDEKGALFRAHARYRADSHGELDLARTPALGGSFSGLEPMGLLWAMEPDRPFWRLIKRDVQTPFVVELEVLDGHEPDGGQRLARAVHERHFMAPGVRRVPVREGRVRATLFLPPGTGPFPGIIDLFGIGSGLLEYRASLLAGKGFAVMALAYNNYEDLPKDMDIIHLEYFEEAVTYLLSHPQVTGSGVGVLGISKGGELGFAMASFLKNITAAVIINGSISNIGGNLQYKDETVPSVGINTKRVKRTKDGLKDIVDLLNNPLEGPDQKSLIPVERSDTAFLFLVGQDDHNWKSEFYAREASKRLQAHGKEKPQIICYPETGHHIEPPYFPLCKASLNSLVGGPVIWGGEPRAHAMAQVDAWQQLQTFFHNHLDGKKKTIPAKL

ACOT5 (formerly PTE-1c) = target: T4, ACOT5 (formerly PTE-1c) (Mus musculus, UniProt Q6Q2Z6); conditions: free CoASH; cited from earlier work
T4 construct: His-tag; host or cells: E. coli
T4 sequence (Q6Q2Z6 1-421): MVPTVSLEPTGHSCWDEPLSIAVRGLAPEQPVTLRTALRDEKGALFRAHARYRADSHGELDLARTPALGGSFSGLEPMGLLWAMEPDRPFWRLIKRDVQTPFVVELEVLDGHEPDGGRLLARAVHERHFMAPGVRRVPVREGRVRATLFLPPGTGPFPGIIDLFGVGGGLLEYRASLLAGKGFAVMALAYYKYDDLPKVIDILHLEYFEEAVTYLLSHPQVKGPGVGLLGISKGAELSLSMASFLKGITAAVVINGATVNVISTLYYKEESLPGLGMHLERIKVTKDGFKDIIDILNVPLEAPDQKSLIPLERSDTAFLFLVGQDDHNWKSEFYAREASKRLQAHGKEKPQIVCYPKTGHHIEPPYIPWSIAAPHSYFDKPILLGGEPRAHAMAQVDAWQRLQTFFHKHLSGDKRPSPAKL

[3] = target: T5, AAR acyl-ACP reductase (YP_400611) (Synechococcus elongatus, UniProt Q54765); conditions: substrate of AAR, octadecanal formed, NADPH-dependent; cited from earlier work
T5 construct: host or cells: E. coli MG1655
T5 sequence (Q54765 1-341): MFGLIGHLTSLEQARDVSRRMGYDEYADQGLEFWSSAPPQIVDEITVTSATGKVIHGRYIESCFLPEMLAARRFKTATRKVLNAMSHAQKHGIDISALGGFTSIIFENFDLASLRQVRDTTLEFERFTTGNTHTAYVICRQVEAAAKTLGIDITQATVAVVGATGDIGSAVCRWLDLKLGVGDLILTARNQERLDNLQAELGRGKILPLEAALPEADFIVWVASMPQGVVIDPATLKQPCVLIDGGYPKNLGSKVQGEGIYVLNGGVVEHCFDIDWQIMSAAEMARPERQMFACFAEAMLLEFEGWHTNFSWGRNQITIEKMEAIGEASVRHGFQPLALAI

[4] = target: T6, Nocardia sp. carboxylic acid reductase (CAR) (Nocardia iowensis, UniProt Q6RKB1); test: Spectrophotometric carboxylic acid reductase (CAR) activity assay, change in absorbance at 340 nm; assay type: biochemical; conditions: for Adjusted for background: gradient of change in absorbance at 340 nm adjusted for background; for gradient of trend line: rate of change in absorbance at 340 nm, CAR cell free extract, substrate added after 2 minutes; for Relative rate % compared to benzoate: relative rate of change in absorbance at 340 nm
T6 construct: made in house; host or cells: E. coli BL-21 (DE3) RP1pPV2-85; cell free extract
T6 sequence (Q6RKB1 1-1174): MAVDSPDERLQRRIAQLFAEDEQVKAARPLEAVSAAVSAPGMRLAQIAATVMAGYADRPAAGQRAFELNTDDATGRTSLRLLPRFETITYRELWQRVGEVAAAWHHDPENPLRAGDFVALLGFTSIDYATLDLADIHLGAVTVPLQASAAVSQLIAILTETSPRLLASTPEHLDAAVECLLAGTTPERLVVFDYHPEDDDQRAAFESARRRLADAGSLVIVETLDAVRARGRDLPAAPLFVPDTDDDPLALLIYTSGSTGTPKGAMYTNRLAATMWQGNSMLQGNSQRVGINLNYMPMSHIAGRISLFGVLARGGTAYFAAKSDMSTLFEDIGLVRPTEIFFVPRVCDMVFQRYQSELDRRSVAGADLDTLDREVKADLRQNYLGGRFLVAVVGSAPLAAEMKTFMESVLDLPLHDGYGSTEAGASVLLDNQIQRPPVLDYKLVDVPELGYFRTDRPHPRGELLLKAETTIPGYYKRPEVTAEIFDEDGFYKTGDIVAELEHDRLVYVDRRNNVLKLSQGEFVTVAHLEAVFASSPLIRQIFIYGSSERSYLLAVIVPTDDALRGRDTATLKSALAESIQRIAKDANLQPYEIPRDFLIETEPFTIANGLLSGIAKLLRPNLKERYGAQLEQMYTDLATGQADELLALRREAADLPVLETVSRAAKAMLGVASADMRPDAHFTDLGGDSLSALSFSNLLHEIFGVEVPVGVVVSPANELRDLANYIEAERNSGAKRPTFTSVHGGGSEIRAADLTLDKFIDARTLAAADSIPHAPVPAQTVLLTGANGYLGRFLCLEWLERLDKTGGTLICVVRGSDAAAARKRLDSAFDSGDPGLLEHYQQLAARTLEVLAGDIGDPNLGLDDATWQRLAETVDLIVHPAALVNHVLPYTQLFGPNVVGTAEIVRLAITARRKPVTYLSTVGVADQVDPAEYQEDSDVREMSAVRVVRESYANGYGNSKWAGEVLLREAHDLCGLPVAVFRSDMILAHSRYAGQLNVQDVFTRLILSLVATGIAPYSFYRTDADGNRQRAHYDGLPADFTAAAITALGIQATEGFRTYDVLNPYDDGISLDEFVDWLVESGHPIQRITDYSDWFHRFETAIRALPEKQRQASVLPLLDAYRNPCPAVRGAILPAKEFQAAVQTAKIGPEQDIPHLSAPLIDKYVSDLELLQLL
Protocol: The conditions for the assay were taken from Applied and Environmental Microbiology 2004, 70, p 1874-1881.
In a quartz cuvette the following reagents were added: 100 μL MgCl2, 100 μL, ATP, 100 μL NADPH, 200 μL Tris.HCl buffer. The absorbance at 340 nm was measured and recorded and 100 μL of CAR cell free extract was added. The absorbance was monitored and recorded. […] The absorbance monitored over time was subtracted from the initial measurement.

[5] = system: PauA catabolic pimeloyl-CoA ligase; conditions: substrate accepted by PauA, pimelate = 100%; cited from earlier work
[6] = target: T7, Amino adipate aminotransferase (Q64602) (Bos taurus, UniProt Q5E9N4); conditions: in the presence of pimelic acid; cited from earlier work
T7 construct: Purification and properties of 2-aminoadipate: 2-oxoglutarate aminotransferase from bovine kidney; host or cells: bovine kidney
T7 sequence (Q5E9N4 30-425, one chain of several): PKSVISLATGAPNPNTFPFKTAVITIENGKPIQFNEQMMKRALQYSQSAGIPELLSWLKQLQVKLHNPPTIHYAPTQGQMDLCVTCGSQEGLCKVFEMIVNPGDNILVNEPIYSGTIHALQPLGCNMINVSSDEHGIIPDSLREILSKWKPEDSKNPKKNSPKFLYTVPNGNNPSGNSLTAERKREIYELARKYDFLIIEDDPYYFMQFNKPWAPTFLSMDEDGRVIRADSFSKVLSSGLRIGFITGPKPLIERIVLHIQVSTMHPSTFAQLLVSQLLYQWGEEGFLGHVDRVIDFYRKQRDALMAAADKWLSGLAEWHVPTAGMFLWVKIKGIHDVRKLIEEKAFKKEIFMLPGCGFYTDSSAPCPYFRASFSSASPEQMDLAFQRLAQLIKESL

Molecule | Km [3] [µM] | Adjusted for background [4] | gradient of trend line [4] | Relative rate % compared to benzoate [4] [%] | further results
CC(C)(COP(=O)(O)OP(=O)(O)OC[C@H]1O[C@@H](n2cnc3c(N)ncnc32)[C@H](O)[C@@H]1OP(=O)(O)O)[C@@H](O)C(=O)NCCC(=O)NCCS [CoASH] |  |  |  |  | IC50 [1]: 10 to 15 µM; inhibition of the reaction [2]: not inhibited; inhibition (ACOT3 (formerly PTE-1a)): no inhibition; inhibition (ACOT5 (formerly PTE-1c)): no inhibition
CCCCCCCC/C=C\CCCCCCCC(=O)SCCNC(=O)CCNC(=O)[C@H](O)C(C)(C)COP(=O)(O)OP(=O)(O)OC[C@H]1O[C@@H](n2cnc3c(N)ncnc32)[C@H](O)[C@@H]1OP(=O)(O)O [oleoyl-CoA] | 130 |  |  |  | 
O=C(O)CCCCCC(=O)O [pimelic acid] |  |  |  |  | activity relative to the activity for benzoic acid ([4]; reduction to pimelic acid semialdehyde by CAR from Nocardia): > 50%; relative activity [5]: 100%; reduction in activity [6]: 30%
O=C([O-])c1ccccc1.[Na+] [sodium benzoate] |  | 0.00133 | 0.0141 | 100 | 
O=C([O-])CCCCCC(=O)[O-].[Na+].[Na+] [sodium pimelate] |  | 0.0068 | 0.0076 | 51.1 | 
oleoyl-ACP | 8 |  |  |  | 
